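How tested: cells in 96-well plates exposed to compound for 48 hours at five concentrations. Abbreviation: GI50, concentration required for 50% inhibition of growth.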 Calls of active or inactive are those of the source. Rule as the data show it: active = GI50 up to about 1.1 µM and inactive = higher.
Columns and labels:
Assay in all cases: DTP human tumour cell line panel, 48 h
[1] = system: LOX IMVI
[2] = system: SK-MEL-28
[3] = system: SW-620
[4] = system: HCC 2998
[5] = system: SK-MEL-2
[6] = system: A549
[7] = system: EKVX
[8] = system: MDA-MB-231
[9] = system: SK-MEL-5
[10] = system: UACC-257
[11] = system: KM12
[12] = system: HCT-15
[13] = system: SF-295
[14] = system: HOP-92
[15] = system: NCI/ADR-RES
[16] = system: HL-60
[17] = system: DU-145
[18] = system: SF-539
[19] = system: HT-29

Measured: GI50

C=C(C)[C@H]1C2=CC(C)=C(O2)[C@@H](O)[C@H](C(=C)C)CCC2=C[C@H]1OC2=O [KALLOLIDE A]
inactive: [1] > 100 µM | [2] > 100 µM | [3] > 100 µM | [4] > 100 µM | [5] > 100 µM | [6] > 100 µM | [7] > 100 µM | [8] > 100 µM | [9] > 100 µM | [10] > 100 µM | [11] > 100 µM | [13] > 100 µM | [14] > 100 µM | [15] > 100 µM | [16] > 100 µM | [17] > 100 µM | [18] > 100 µM
> 100 µM: [12]

O=C1Sc2cc3ccccc3cc2C(=O)Sc2cc3ccccc3cc21
inactive: [1] 19 µM | [2] 28.6 µM | [3] 30.3 µM | [4] 21.3 µM | [5] 23 µM | [6] 81.7 µM | [7] 76.2 µM | [8] > 54.6 µM | [9] 50.8 µM | [10] 27.8 µM | [11] 33 µM | [19] 28 µM | [13] > 87.3 µM | [14] 30.2 µM | [15] 29.1 µM | [16] 7.87 µM | [17] 58.7 µM | [18] 31.9 µM
22.8 µM: [12]

COc1cc(C2C=C(c3ccccc3)Oc3cc4c(cc32)OCO4)cc(OC)c1OC (stereo unspecified)
active: [1] 0.569 µM | [2] 0.57 µM | [3] 0.406 µM | [4] 0.341 µM | [6] 0.2 µM | [7] 0.565 µM | [8] 0.458 µM | [9] 0.502 µM | [11] 0.38 µM | [19] 0.324 µM | [13] 0.124 µM | [15] 0.312 µM | [16] 0.521 µM | [17] 0.361 µM | [18] 0.265 µM
inactive: [5] 1.91 µM | [10] 3.33 µM | [14] 15 µM
0.324 µM: [12]

N#Cc1c(N)c(C#N)c2c(c1-c1ccc(Cl)cc1)COc1ccccc1-2
inactive: [1] 29.7 µM | [2] 16.5 µM | [3] 32.6 µM | [4] 17.4 µM | [5] 22 µM | [6] 14.5 µM | [7] 9.14 µM | [8] 24.2 µM | [9] 22 µM | [10] 44.1 µM | [11] 28.6 µM | [19] 13.2 µM | [14] 15.3 µM | [15] 20.9 µM | [16] 25.4 µM | [17] 21.6 µM | [18] 18.5 µM
31.8 µM: [12]

COc1ccc(OC)c2nc3c(C(=O)NCCN(C)C)cccc3nc12
inactive: [1] 1.78 µM | [2] 7.83 µM | [3] 1.77 µM | [4] 5.77 µM | [5] 8.45 µM | [6] 3.37 µM | [7] 6.58 µM | [8] 2.94 µM | [9] 3.67 µM | [10] 3.88 µM | [11] 4.2 µM | [19] 1.8 µM | [13] 3.99 µM | [14] 4.18 µM | [15] 5.25 µM | [16] 3.18 µM | [17] 5.21 µM | [18] 4.5 µM
4.74 µM: [12]

Cc1nc2nn[nH]n2c(=O)c1CCO
inactive: [1] > 100 µM | [2] > 100 µM | [3] > 100 µM | [4] > 100 µM | [5] > 100 µM | [6] > 100 µM | [7] > 100 µM | [8] > 100 µM | [9] > 100 µM | [10] > 100 µM | [11] > 100 µM | [19] > 100 µM | [13] > 100 µM | [14] > 100 µM | [15] > 100 µM | [16] > 100 µM | [17] > 100 µM | [18] > 100 µM
> 100 µM: [12]

O[C@H]1[C@H](O)[C@H](O)CN2CCC[C@@H](O)[C@H]12
inactive: [1] > 100 µM | [2] > 100 µM | [3] > 100 µM | [4] > 100 µM | [5] > 100 µM | [6] > 100 µM | [7] > 100 µM | [8] > 100 µM | [9] > 100 µM | [10] > 100 µM | [11] > 100 µM | [19] > 100 µM | [13] > 100 µM | [14] > 100 µM | [15] > 100 µM | [16] > 100 µM | [17] > 100 µM | [18] > 100 µM
> 100 µM: [12]

CCOC(=O)c1c(-c2ccc(Cl)cc2)c(C#N)c(=S)n(C2OC(COC(C)=O)C(OC(C)=O)C(OC(C)=O)C2OC(C)=O)c1C (stereo unspecified)
active: [14] 0.125 µM
inactive: [1] > 100 µM | [2] > 100 µM | [3] > 100 µM | [4] > 100 µM | [5] 1.77 µM | [6] > 100 µM | [7] > 100 µM | [8] > 100 µM | [9] > 100 µM | [10] > 100 µM | [11] > 100 µM | [19] > 100 µM | [13] > 100 µM | [15] > 100 µM | [16] > 100 µM | [17] > 100 µM | [18] > 100 µM
> 100 µM: [12]

Oc1ccc(/C=C\c2nnc(/C=C\c3ccc(O)c(O)c3)s2)cc1O
inactive: [1] 5.46 µM | [2] 7.45 µM | [3] 1.49 µM | [4] 8.32 µM | [5] 11.7 µM | [6] 6.31 µM | [7] 16.6 µM | [8] 20 µM | [9] 3.2 µM | [10] 8.34 µM | [11] 5.45 µM | [19] 36.1 µM | [13] 12.2 µM | [14] 5.07 µM | [15] 7.67 µM | [17] 7.05 µM | [18] 3.36 µM
active: [16] 0.853 µM
3.85 µM: [12]

O=C(Cn1c(C(=O)c2ccccc2)nc2ccccc21)c1ccccc1
> 100 µM: [12]
inactive: [1] > 100 µM | [2] > 100 µM | [3] 4.85 µM | [4] > 100 µM | [5] > 100 µM | [6] > 96.4 µM | [7] > 100 µM | [8] > 100 µM | [9] > 100 µM | [10] > 100 µM | [11] > 100 µM | [19] 19.2 µM | [13] 67 µM | [14] 70.5 µM | [15] > 100 µM | [16] 7.1 µM | [17] > 100 µM | [18] > 100 µM

COc1ccc(C(=O)N(Cc2cccnc2)C(=S)N(Cc2cccnc2)C(=O)c2ccc(OC)cc2)cc1
inactive: [1] > 100 µM | [2] > 100 µM | [3] > 100 µM | [4] > 100 µM | [5] > 100 µM | [6] > 100 µM | [7] > 100 µM | [8] > 100 µM | [9] > 100 µM | [10] > 100 µM | [11] 70.8 µM | [19] > 100 µM | [13] 57.8 µM | [14] 36.6 µM | [15] 75.2 µM | [16] > 100 µM | [17] > 100 µM | [18] > 100 µM
> 100 µM: [12]

CC(C)/C(Cl)=N\OC(=O)Nc1ccccc1F
16.2 µM: [12]
inactive: [1] 2.55 µM | [2] 16.6 µM | [3] 1.88 µM | [4] 14.9 µM | [5] 18.1 µM | [6] 18.7 µM | [7] 16.9 µM | [8] 8.81 µM | [9] 14.5 µM | [10] 18.3 µM | [11] 20.8 µM | [19] 24.3 µM | [13] 16.3 µM | [14] 2.16 µM | [15] 15.2 µM | [16] 1.68 µM | [17] 16.4 µM | [18] 17.3 µM

COc1cccc(NC(=O)CC(=O)N2N=C(C)C(/N=N\c3ccc(S(=O)(=O)c4ccc(/N=N/C5C(=O)N(C(=O)CC(=O)Nc6cccc(OC)c6)N=C5C)cc4)cc3)C2=O)c1 (stereo unspecified)
inactive: [1] > 100 µM | [2] > 100 µM | [3] > 100 µM | [4] > 100 µM | [5] > 100 µM | [6] > 100 µM | [7] > 100 µM | [8] > 100 µM | [9] > 100 µM | [10] > 100 µM | [11] > 100 µM | [19] > 100 µM | [13] > 100 µM | [14] > 100 µM | [15] > 100 µM | [16] > 100 µM | [17] > 100 µM | [18] > 100 µM
> 100 µM: [12]

NCCSS(=O)(=O)CCN
inactive: [1] > 100 µM | [2] > 100 µM | [3] > 100 µM | [4] > 100 µM | [5] > 100 µM | [6] > 100 µM | [7] > 100 µM | [8] > 100 µM | [9] > 100 µM | [11] > 100 µM | [19] > 100 µM | [13] > 100 µM | [14] > 100 µM | [15] > 100 µM | [16] > 100 µM | [17] > 100 µM | [18] > 100 µM
> 100 µM: [12]

O=c1[nH]cnc2c1ncn2[C@@H]1C[C@H]1CO
inactive: [1] > 100 µM | [2] > 100 µM | [3] > 100 µM | [4] > 100 µM | [5] > 100 µM | [6] > 100 µM | [7] > 100 µM | [8] > 100 µM | [9] > 100 µM | [10] > 100 µM | [11] > 100 µM | [19] > 100 µM | [14] > 100 µM | [15] > 100 µM | [16] > 100 µM | [17] > 100 µM | [18] > 100 µM
> 100 µM: [12]

— ChEMBL document CHEMBL1201862, “PubChem BioAssay data set” (2004)
